Values quoted from earlier work in PMC8198792, “Prediction of Anticancer Peptides with High Efficacy and Low Toxicity by Hybrid Model Based on 3D Structure of Peptides” (International Journal of Molecular Sciences, 2021).
Read-outs that look alike come from different tables or passages of the source.

System: cancer cell lines
Parameters: method as in 6 sources, ref CancerPPD [45] and SATPdb ||| ref CancerPPD/SATPdb ||| ref CancerPPD, SATPdb, Swissprot (PDB) ||| ref CancerPPD/SATPdb/Swissprot(PDB) ||| ref CancerPPD / SATPdb ||| ...
Settings: cited from earlier work
Text: Supplement ijms-22-05630-s001.zip/ACPs(seguence).xlsx, sheet "D1" | column: Activity || Supplement ijms-22-05630-s001.zip/ACPs(seguence).xlsx, sheet "D2" | column: Activity || Supplement ijms-22-05630-s001.zip/ACPs(seguence).xlsx, sheet "D3" | column: Activity || (+ 2 further places)

[1] = ACPs dataset D2 (supplement ACPs(seguence).xlsx, sheet D2), dataset label 1/0 (ACP / non-ACP), entries identified by Swissprot(PDB ID), ref CancerPPD/SATPdb/Swissprot(PDB)
[2] = ACPs dataset D5 (sheet "D5"), label 1 = ACP (positive set), 0 = non-ACP (negative set), ref CancerPPD [45] and SATPdb
[3] = ACPs dataset D1, 1 = ACP (positive), 0 = non-ACP (negative), label taken from databases, ref CancerPPD [45] and SATPdb
[4] = ACPs dataset D4 (sheet "D4"), label 1 = ACP, experimentally validated ACPs, ref CancerPPD [45] and SATPdb
[5] = ACPs dataset D5 (sheet "D5"), label 1 = ACP (positive set), sequences with CancerPPD/SATPdb ID, ref CancerPPD, SATPdb
[6] = ACPs dataset sheet D2, 1 = ACP (CancerPPD/SATPdb ID), 0 = non-ACP (Swissprot/PDB ID), ref CancerPPD, SATPdb, Swissprot (PDB)
[7] = ACPs dataset D1, label 1 = ACP, 0 = non-ACP (non-anticancer AMPs from SATPdb), ref CancerPPD/SATPdb
[8] = ACPs dataset D4 (sheet "D4"), label 1 = ACP, 0 = non-ACP, ref CancerPPD / SATPdb
[9] = ACPs dataset D4 (sheet "D4"), label 1 = ACP (CancerPPD ID), 0 = non-ACP (non-anticancer AMP, SATPdb ID), ref CancerPPD [45] and SATPdb
[10] = ACPs dataset D3 (supplement sheet "D3"), 1 = ACP, 0 = non-ACP, ref CancerPPD [45] and SATPdb
[11] = ACPs dataset D5, sheet "D5", label 1 = ACP, 0 = non-ACP, ref CancerPPD [45] and SATPdb
[12] = ACPs dataset D3 (sheet "D3"), label 1 = ACP, 0 = non-ACP, ref CancerPPD/SATPdb

QCESGPCCRNCKFLKEGTICKRARGDDMDDYCNGKTCDCPRNPHKGPAT [1RO3 NMR - A 1-49]
Activity [1]: 0
Activity [2]: 0

QEPHRHSIFTPQTNPRADLEKN [satpdb11381]
Activity [3]: 1
Activity [4]: 1
Activity [5]: 1
Activity [6]: 1

QLGELIQQGGQKIVEKIQKIGQRIRDFFSNLRPRQEA [satpdb13050]
Activity [7]: 0
Activity [8]: 0

QLKKCWNNYVQGHCRKICRVNEVPEALCENGRYCCLNIKELEAC [satpdb10388]
Activity [3]: 0
Activity [9]: 0

QPWSQCSATCGDGVRERRR [satpdb12468]
Activity [3]: 1
Activity [4]: 1
Activity [5]: 1
Activity [6]: 1

QRACPRILKKCRRDSDCPGECICKENGYCG [2LJS NMR - A 1-30]
Activity [2]: 0
Activity [6]: 0

RCRLAERRQIAK [satpdb18274]
Activity [3]: 1
Activity [4]: 1
Activity [5]: 1
Activity [6]: 1

RCTCTTIISSSSTF [satpdb11144]
Activity [3]: 0
Activity [9]: 0

RDCTSQSHKFVGLCLSDRNCASVCLTEYFTGGKCDHRRCVCTKGC [satpdb13162]
Activity [7]: 0
Activity [8]: 0

RGDLLRHVVKILEKYL [compound 1672]
Activity [3]: 1
Activity [4]: 1
Activity [5]: 1
Activity [6]: 1

RGFRKHFNKLVKKVKHTISETAHVAKDTAVIAG [satpdb11665]
Activity [10]: 0
Activity [8]: 0
Activity [11]: 0

RGGRLCYARRRFAVCVGR [satpdb14374]
Activity [12]: 0
Activity [8]: 0
Activity [11]: 0

RGGRLCYCRRRFCVCVGR [compound 4251]
Activity [10]: 1
Activity [9]: 1
Activity [2]: 1

RGGRLTYTRpRFTVTVGR [satpdb14856]
Activity [12]: 0
Activity [8]: 0
Activity [11]: 0

RICPRIWMECKRDSDCMAQCICVDGHCG [1F2S X-ray 1.79 I 1-28]
Activity [2]: 0
Activity [6]: 0

RLGDILQKAREKIEGGLKKLVQKIKDFFGKFAPRTES [satpdb11337]
Activity [3]: 0
Activity [9]: 0

RLYRKVYGRLYRKVYGRLYRKVYGRLYRKVYGKKK [satpdb11459]
Activity [10]: 0
Activity [8]: 0
Activity [11]: 0

RLYRRLYRRLYRRLYRRLYRRLYRRLYRRLYRKKKKKKK [satpdb14208]
Activity [12]: 0
Activity [8]: 0
Activity [11]: 0

RPFVEMYSEIPE [satpdb28120]
Activity [3]: 1
Activity [4]: 1
Activity [5]: 1
Activity [6]: 1

RRPKGRGKRRREKQRPDAVPRR [satpdb18651]
Activity [3]: 1
Activity [4]: 1
Activity [5]: 1
Activity [6]: 1

RRPKGRGKRRREKQRPTDCHLCGDAVPRR [satpdb17014]
Activity [3]: 1
Activity [4]: 1
Activity [5]: 1
Activity [6]: 1

RRWCFRVCYR GFCYRKCR [1RKK NMR - A 1-18]
Activity [2]: 0
Activity [6]: 0

RRWCFRVCYRGRFCYRKCR [satpdb14798]
Activity [12]: 0
Activity [8]: 0
Activity [11]: 0

RTCESPSNKFQGVCLNSQSCAKACPSEGFSGGRCSSLRCYCSKAC [satpdb13976]
Activity [7]: 0
Activity [9]: 0

SCASRCKGHCRARRCGYYVSVLYRGRCYCKCLRC [2EEM NMR - A 1-34]
Activity [2]: 0
Activity [6]: 0

SDQGDVAEPKMHKTAPPFDFEAIPEEYLDDES [3B23 X-ray 2.40 C 1-32]
Activity [2]: 0
Activity [6]: 0

SFGLCRLRRGFCARGRCRFPSIPIGRCSRFVQCCRRVW [1UT3 NMR - A 1-38]
Activity [1]: 0
Activity [2]: 0

SGSDGGVCPKILKKCRRDSDCPGACICRGNGYCG [1HA9 NMR - A 1-34]
Activity [2]: 0
Activity [6]: 0

SILSTLKDVGISAIKNAGSGVLKTLLCKLNKNCEK [satpdb12439]
Activity [7]: 0
Activity [9]: 0

SKWSECSRTCGGGVKFQER [satpdb16830]
Activity [3]: 1
Activity [4]: 1
Activity [5]: 1
Activity [6]: 1

SLIPHAINAVSAIAKHF [satpdb12892]
Activity [12]: 0
Activity [8]: 0
Activity [11]: 0

SNASVWECCSTGSWVPFTCC [satpdb10213]
Activity [3]: 0
Activity [9]: 0

SPPNQPSIMTFDYAKTNK [satpdb13153]
Activity [7]: 0
Activity [8]: 0

SPWDIASVTAGGVQKRS [satpdb27667]
Activity [3]: 1
Activity [4]: 1
Activity [5]: 1
Activity [6]: 1

SPWSPCSGNCSTGKQQRTR [satpdb11308]
Activity [3]: 1
Activity [4]: 1
Activity [5]: 1
Activity [6]: 1

SPWSQCTASCGGGVQTR [satpdb21725]
Activity [3]: 1
Activity [4]: 1
Activity [5]: 1
Activity [6]: 1

SPWSSCSVTCGDGVITRIR [satpdb28070]
Activity [3]: 1
Activity [4]: 1
Activity [5]: 1
Activity [6]: 1

SPWTKCSATCGGGHYMRTR [satpdb19979]
Activity [3]: 1
Activity [4]: 1
Activity [5]: 1
Activity [6]: 1

SSSGWLCTLTIECGTIICACR [satpdb10412]
Activity [3]: 0
Activity [9]: 0

SSTSPHRPRFS [satpdb14979]
Activity [3]: 1
Activity [4]: 1
Activity [5]: 1
Activity [6]: 1

SVLGTVKDLLIGAGKSAAQSVLTANSCKLSNSC [satpdb10581]
Activity [3]: 0
Activity [9]: 0

SVSNAATRVARTGRSRWRDVARNFMR [satpdb11117]
Activity [3]: 0
Activity [9]: 0

SWLSKTAKKLENSAKKRISEGIAIAIQGGPR [compound 1235]
Activity [3]: 1
Activity [4]: 1
Activity [5]: 1
Activity [6]: 1

SYSMEHFRWGKPV [2IQP model - B 1-13]
Activity [2]: 0
Activity [6]: 0

TAWGPCSTTCGLGMATRV [satpdb13892]
Activity [3]: 1
Activity [4]: 1
Activity [5]: 1
Activity [6]: 1

TEENRELVSELKRP [satpdb12614]
Activity [3]: 1
Activity [4]: 1
Activity [5]: 1
Activity [6]: 1

TEWSACNVRCGRGWQKRSR [satpdb12052]
Activity [3]: 1
Activity [4]: 1
Activity [5]: 1
Activity [6]: 1

TEWSACSKTCGMGISTRV [satpdb13253]
Activity [3]: 1
Activity [4]: 1
Activity [5]: 1
Activity [6]: 1

TEWSVCNSRCGRGYQKRTR [satpdb19902]
Activity [3]: 1
Activity [4]: 1
Activity [5]: 1
Activity [6]: 1

TEWTACSKSCGMGFSTRV [satpdb28517]
Activity [3]: 1
Activity [4]: 1
Activity [5]: 1
Activity [6]: 1

TFRAFLSSRLQDLYSIVRRADRAAV [compound 4202]
Activity [3]: 1
Activity [4]: 1
Activity [5]: 1
Activity [6]: 1
